PMC6150237, “Study of Absorption Characteristics of the Total Saponins from Radix Ilicis Pubescentis in an In Situ Single-Pass Intestinal Perfusion (SPIP) Rat Model by Using Ultra Performance Liquid Chromatography (UPLC)” (Molecules : A Journal of Synthetic Chemistry and Natural …, 2017)

Tests used:
[1] = In situ single-pass intestinal perfusion (SPIP), saponins administrated in MDQ-TS form; format: in vivo, rat; conditions: male, Sprague-Dawley, rat, other: in situ single-pass intestinal perfusion
Method: (§1) MDQ-TS perfusion samples at low, middle, and high concentration levels of 1.25, 2.5, and 5.0 mg·mL^−1 were prepared by separately dissolving MDQ-TS in the minimum amount of DMSO and diluted with K-R buffer solution. The amount of DMSO was 0.5% in the final perfusion solutions. C1, C2, C3, C4, DC1, and DC2 perfusion samples with the concentration equivalent to the amount contained in 2.5 mg·mL^−1 of MDQ-TS were individually prepared in the same way. Verapamil, amantadine and EDTA were directly dissolved in the MDQ-TS perfusate with terminal concentrations of 200 μmol·L^−1, 2.5 mmol·L^−1, and 2.5 mmol·L^−1, accordingly, and used for investigating the mechanisms involved for absorption.
(§2) In situ single-pass intestinal perfusion (SPIP) studies were performed using an experimental design adapted from the literature with some modifications. Briefly, male Sprague-Dawley rats weighing 180–220 g were acclimatized for at least one week before the experiment, and fasted for 18 h with free access to water before the perfusion experiment. Rats were anesthetized with an intraperitoneal injection of urethane (30 mg·kg^−1 body weight), and kept on a homeothermic blanket to maintain normal body temperature. The abdomen was opened with a midline longitudinal incision, and three segments of rat intestine (duodenum, jejunum, and ileum) of approximately 10 cm each were carefully cannulated on two ends with plastic tubing. Initially, the perfusion solution free of drug (37 °C) was pumped by peristaltic pump (BT100-1F, Longer Pump Co., Baoding, China) through the cannulated segments at a flow rate of 1 mL/min for approximately 30 min in order to clean out any residual debris. Secondly, the perfusion solution containing a known concentration of substance (C1, C2, C3, C4, DC1, DC2, and MDQ-TS) was perfused at 37 °C through the intestinal lumen at a constant flow rate of 0.2 mL/min. The first 20 min of period corresponds to steady state, i.e., when the substance is in equilibrium with the intestinal membrane. After steady state, samples were collected from distal portion of duodenum, jejunum and ileum at 10 min intervals (0–10, 10–20, 20–30, 30–40, 40–50, 50–60 min) in pre-weighted vials. Samples were immediately frozen at −20 °C until analysis by validated UPLC. During the experiment, care was taken to avoid disturbance of the circulatory system and the exposed segment was covered with a piece of sterilized gauze to keep it warm and moist by frequent application of warm (37 °C) saline. The intestinum tenue maintained its viability and intact state without disrupting the blood supply throughout the experimental period. Finally, animals were sacrificed after depth anesthesia by intraperitoneal injection of urethane, according to protocols for euthanasia in experimental animals. After death, the intestinal segment was removed for measurements of length and inside diameter.
(§3) The net water flux in the in situ perfusion studies (water absorption and efflux in the intestinal segment) was determined by gravimetric method. The effective absorption rate constant (Ka) and effective apparent permeability (Papp) of compounds in the intestinal segments were calculated according to the following mathematical expression:(1) Ka=(1−CoutQout/CinQin)Q/V (2) Papp=−Qln(CoutQout/CinQin)/2πrl where Cin and Cout are the concentration of test drug in the effluent perfusate through the inlet and outlet tube (μg·mL^−1), respectively. Qin and Qout represent the inlet and outlet volume of effluent perfusate (mL), respectively. Q is the volume flow rate of perfusion (mL·h^−1). V is the volume of the intestinal segment concerned (mL). 2πrl is the area of the mass transfer surface of intestinal segment concerned (cm^2).

rat duodenum [2] = assay: SPIP of MDQ-TS with or without verapamil (P-gp inhibitor); format: in vivo; conditions: MDQ-TS 2.5 mg/mL; for Ka increase in comparison with non-Verapamil added group / Papp increase in comparison with non-Verapamil added group: verapamil 200 μmol·L^−1
Method: as §1, §2
as §3, with “(cm^2). […]” for “(cm^2).”

rat duodenum [3] = assay: SPIP of MDQ-TS with or without amantadine (endocytosis inhibitor); format: in vivo; conditions: MDQ-TS 2.5 mg/mL; for decrease of absorption compared with non-Amantadine added group: amantadine 2.5 mmol·L^−1
Method: as §1, §2
as §3, with “(cm^2). […]” for “(cm^2).”

[4] = Stability in outflow perfusate matrix; format: physicochemical; conditions: 37 °C
Method: The chromatographic method was validated for specificity, linearity and LOQ, accuracy and precision, extraction recovery, matrix, and stability. The validation parameters were studied using drug-free (blank) intestinal perfusate mixture that had passed through intestinal segments, and had been collected from five different rats. Specificity was evaluated by analyzing the intestinal perfusion blank and perfusion blank spiked with analytes to investigate the potential interferences of intestinal perfusate endogenous with the analytes; calibration and quality control (QC) samples were obtained by spiking mixed working standard solution in blank intestinal perfusion buffer. Calibration curves were constructed in the range of 20–1000 μg·mL^−1 for C1 (20, 40, 100, 200, 400, and 1000 μg·mL^−1), and 8.0–400.0 μg·mL^−1 for C2, C3, C4, DC1 and DC2 (8.0, 16.0, 40.0, 80.0, 160.0, and 400.0 μg·mL^−1). A weighted (1/x^2) linear least-squares linear regression method was used to determine the slope, intercept, and correlation coefficient; LOQ was determined by injection a series of standard solutions until the signal-to-noise (S/N) ratio was 10; Precision and accuracy were assessed at low, medium, and high concentration levels (40, 200, and 800 μg·mL^−1 for C1; 16, 80, and 320 μg·mL^−1 for C2, C3, C4, DC1, and DC2). Intra-day data was obtained by assaying six replicates at each concentration level in a day, and inter-day data was determined by analyzing QC samples in duplicates during three separate and successive days; The extraction recovery of the six analytes and IS from the outflow perfusate matrix was determined by comparing the mean peak areas of six replicates processed QC samples at each concentration level spiked before extraciton with those from outflow perfusate spiked after extraction; Matrix effect was assessed by comparing the mean peak areas of six replicates at each concentration level dissolved in the post-extracted intestinal perfusate matrix with those of neat standards (C1, C2, C3, C4, DC1, DC2, and IS) spiked in methanol at corresponding concentration levels; Stabilities of C1, C2, C3, C4, DC1, and DC2 in outflow perfusate matrix (12 h, 37 °C), processed samples (auto-sampler condition for 24 h), after freeze-thaw cycle and long-term cold storage (−20 °C, 14 days) were assayed by QC samples in six replicates at three concentration level.

[5] = MDQ-TS form 1.25 mg·mL^−1, duodenum, n = 5
[6] = MDQ-TS form 1.25 mg·mL^−1, ileum, n = 5
[7] = MDQ-TS form 1.25 mg·mL^−1, jejunum, n = 5
[8] = MDQ-TS form 2.5 mg·mL^−1, duodenum, n = 5
[9] = MDQ-TS form 2.5 mg·mL^−1, ileum, n = 5
[10] = MDQ-TS form 2.5 mg·mL^−1, jejunum, n = 5
[11] = MDQ-TS form 5.0 mg·mL^−1, duodenum, n = 5
[12] = MDQ-TS form 5.0 mg·mL^−1, ileum, n = 5
[13] = MDQ-TS form 5.0 mg·mL^−1, jejunum, n = 5
[14] = administrated in MDQ-TS form, summary bound (except DC2 in 1.25 mg·mL^−1 MDQ-TS group)

Compound | Papp [1, 5] | Papp [1, 6] | Papp [1, 7] | Papp [1, 8] | Papp [1, 9] | Papp [1, 10] | Papp [1, 11] | Papp [1, 12] | Papp [1, 13] | Papp [1, 14] | Ka increase in comparison with non-Verapamil added group (rat duodenum [2]) | decrease of absorption compared with non-Amantadine added group (rat duodenum [3]) | stability in outflow perfusate matrix [4] | Papp increase in comparison with non-Verapamil added group (rat duodenum [2]) | intestinal absorption in Verapamil added group (rat duodenum [2]; verapamil 200 μmol·L^−1, result in words) | absorption when co-perfusion with Amantadine (rat duodenum [3]; amantadine 2.5 mmol·L^−1, result in words)
C[C@@H]1CC[C@]2(C(=O)O)CC[C@]3(C)C(=CC[C@@H]4[C@@]5(C)CC[C@H](O)[C@@](C)(C(=O)O)[C@@H]5CC[C@]43C)[C@@H]2[C@]1(C)O [C1, ilexgenin A] | 36.7 ×10⁻⁶ cm/s | 25 ×10⁻⁶ cm/s | 28.3 ×10⁻⁶ cm/s | 50 ×10⁻⁶ cm/s | 68.3 ×10⁻⁶ cm/s | 55 ×10⁻⁶ cm/s | 56.7 ×10⁻⁶ cm/s | 41.7 ×10⁻⁶ cm/s | 61.7 ×10⁻⁶ cm/s | > 20 ×10⁻⁶ cm/s | about 1.5 fold | 40% | at least 12 h |  |  | 
CC1CCC2(C(=O)OC3OC(CO)C(O)C(O)C3O)CCC3(C)C(=CCC4C5(C)CCC(O)C(C)(C(=O)O)C5CCC43C)C2C1(C)O (centres unmarked) [C2, ilexsaponin A1] | 28.3 ×10⁻⁶ cm/s | 23.3 ×10⁻⁶ cm/s | 28.3 ×10⁻⁶ cm/s | 45 ×10⁻⁶ cm/s | 46.7 ×10⁻⁶ cm/s | 43.3 ×10⁻⁶ cm/s | 36.7 ×10⁻⁶ cm/s | 23.3 ×10⁻⁶ cm/s | 33.3 ×10⁻⁶ cm/s | > 20 ×10⁻⁶ cm/s | ~4.2 fold | 71% | at least 12 h | about 2.3 fold |  | 
C[C@H]1CC[C@]2(C(=O)O)CC[C@]3(C)C(=CC[C@@H]4[C@@]5(C)CC[C@H](O[C@@H]6OC[C@@H](O)[C@H](O)[C@H]6O[C@@H]6O[C@H](CO)[C@@H](O)[C@H](O)[C@H]6O)C(C)(C)[C@@H]5CC[C@]43C)[C@@H]2[C@]1(C)O [C3, ilexsaponin B1] |  |  |  |  |  |  |  |  |  |  | ~1.2 fold |  | at least 12 h | ~1.4 fold |  | 
C[C@@H]1O[C@@H](O[C@H]2[C@H](O[C@H]3[C@H](O[C@H]4CC[C@]5(C)[C@H]6CC=C7[C@H]8[C@](C(=O)O)(CC[C@H](C)[C@@]8(C)O)CC[C@@]7(C)[C@]6(C)CC[C@H]5C4(C)C)OC[C@@H](O)[C@@H]3O)O[C@H](CO)[C@@H](O)[C@@H]2O)[C@H](O)[C@H](O)[C@H]1O [C4, ilexsaponin B2] |  |  |  |  |  |  |  |  |  |  | about 1.5 fold | 31% | at least 12 h |  |  | 
C[C@@H]1O[C@@H](O[C@H]2[C@H](O[C@H]3[C@H](O[C@H]4CC[C@]5(C)[C@H]6CC=C7[C@H]8[C@](C(=O)O[C@@H]9O[C@H](CO)[C@@H](O)[C@H](O)[C@H]9O)(CC[C@H](C)[C@@]8(C)O)CC[C@@]7(C)[C@]6(C)CC[C@H]5C4(C)C)OC[C@@H](O)[C@@H]3O)O[C@H](CO)[C@@H](O)[C@@H]2O)[C@H](O)[C@H](O)[C@H]1O [DC2, ilexoside O] |  |  |  |  |  |  |  |  |  |  |  | 100% | at least 12 h |  | could not be absorbed by the small intestine at all | completely inhibited
ilexsaponin B3 [DC1] |  |  |  |  |  |  |  |  |  |  | ~2.9 fold | 53% | at least 12 h | ~3.4 fold |  | 
